In publication PMC12123601, “Light-Induced, Lysine-Targeting Irreversible Covalent Inhibition of the Human Oxygen Sensing Hydroxylase Factor Inhibiting HIF (FIH)” (Journal of the American Chemical Society, 2025):
Several values for one entry are separate records, joined by “and”; a condition that tells them apart may be missing. Identical values can stand only once.

Columns and labels:
HIF-1α and HIF-2α = assay: Western blotting of HIF-1α and HIF-2α protein levels in Hep3B cells; format: cell-based
Method: To investigate potential cellular target engagement of NBA-ZG-2291 with FIH, we performed a time-dependent cellular thermal shift assay (CETSA) using Hep3B cells. The results imply that, after 30 min of light activation (365 nm, 16 W), NBA-ZG-2291 effectively stabilizes FIH with a ΔT m of about 9 °C after incubation for 12–48 h (Figure A), indicating sustained engagement with FIH. […] We also performed Western blotting to examine the protein levels of both HIF-1α and HIF-2α in control and NBA-ZG-2291-treated Hep3B cells.

FIH = FIH (Homo sapiens, UniProt Q9NWT6); assay: Intact protein mass analysis of FIH treated with compound; format: binding; details: FIH 5 μM, compound 50 μM
Method: 3 (A) Intact protein mass analysis of FIH (5 μM) and FIH (5 μM) treated with NBA-ZG-2291 (50 μM) without irradiation. (B) Crystal structure view of FIH in complex with NBA-ZG-2291 without irradiation. (C) Superimposition of the crystal structure FIH in complex with NBA-ZG-2291 (green) (PDB ID: 9I4H) and that in complex with ZG-2291 (pink) (PDB ID: 8II0 ). (D) Intact protein mass analysis of FIH (5 μM) and FIH (5 μM) treated with NBA-ZG-2291 (50 μM) followed by 30 min of irradiation (365 nm, 16 W). (E) Predicted covalent binding mode of NBA-ZG-2291 with FIH.
Subsequently, we verified the covalent reaction of NBA-ZG-2291 and FIH with irradiation in solution using, intact protein mass analyzes.
3.4 Intact protein mass spectrometry
Purified FIH (5 μM final) was incubated with Lys-1 at 50 μM in 50 mM Tris pH 7.5, 50 μM MnCl2 in a total volume of 100 μL.
All experiments were incubated at 25 ℃ for 1 h, then with or without irradiation at 365 nm for 30 min. […]
The process of customizing non-standard residues (NBA-ZG-2291 modified Lys106) in the amber14sb force field involved the following steps: First, the molecular structure of NBA-ZG-2291 was obtained and its topology was generated. […] The molecular charges were then calculated using the RESP method, and the topology file was updated with these charge values. […]

Hep3B cells = assay: Whole-genome RNA sequencing of treated Hep3B cells; format: cell-based; details: replicates B1, B2
Method: To confirm whether the effects of NBA-ZG-2291 on gene expression are FIH-dependent, we knocked down FIH using siRNA and compared the impact of NBA-ZG-2291 treatment and FIH knockdown (siFIH) on gene expression in Hep3B cells. Whole-genome expression profiling analysis was conducted in NBA-ZG-2291-treated Hep3B cells and FIH knockdown Hep3B cells, with DMSO-treated Hep3B cells serving as controls.

Chain of FIH (Q9NWT6 whole entry): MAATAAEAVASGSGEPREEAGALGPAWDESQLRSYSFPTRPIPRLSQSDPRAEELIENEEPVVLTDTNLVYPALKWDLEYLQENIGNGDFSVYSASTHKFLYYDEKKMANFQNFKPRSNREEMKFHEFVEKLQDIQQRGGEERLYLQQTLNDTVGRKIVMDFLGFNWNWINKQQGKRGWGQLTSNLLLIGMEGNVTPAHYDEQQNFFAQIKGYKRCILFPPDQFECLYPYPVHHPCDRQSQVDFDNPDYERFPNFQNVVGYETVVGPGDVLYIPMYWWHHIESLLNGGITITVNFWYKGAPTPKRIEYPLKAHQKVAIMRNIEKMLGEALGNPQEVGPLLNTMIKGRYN

In the case of `O=C(O)CNC(=O)c1ncc(-c2cc(-c3ccc(CO)c([N+](=O)[O-])c3)no2)cc1O` [NBA-ZG-2291], the “Protein levels of HIF-1α and HIF-2α” value (HIF-1α and HIF-2α) is reported as “did not significantly alter the levels of either HIF-1α or HIF-2α”, the “Covalent adduct with FIH by intact protein MS” value (FIH; 30 min light activation (365 nm, 16 W)) is reported as “a new peak with the anticipated mass shift corresponding to covalent reaction was detected” and the “Covalent adduct with FIH by intact protein MS” value (FIH; absence of irradiation) is reported as “failed to detect the covalent adducts”. The “DPM1 expression (whole-genome RNA sequencing)” value (Hep3B cells) was 3.9965 and 3.239, the “SCYL3 expression (whole-genome RNA sequencing)” value (Hep3B cells) was 0.949 and 1.202 and the “TNMD expression (whole-genome RNA sequencing)” value (Hep3B cells) was 0. The “TSPAN6 expression (whole-genome RNA sequencing)” value (Hep3B cells) was 7.032 and 6.946.
